Measured values as given in US20250154173A1 (Merck Sharp & Dohme LLC, priority 2023, published 2025).

Target: T1, GST-RIPK1 (recombinant GST-RIPK1 kinase domain (residues 1-327)) (Homo sapiens, UniProt Q13546)
T1 construct: recombinant GST-RIPK1 kinase domain (residues 1-327) enzyme produced from baculovirus-transfected Sf21 cells; host or cells: baculovirus-transfected Sf21 insect cells
T1 sequence (Q13546 1-327): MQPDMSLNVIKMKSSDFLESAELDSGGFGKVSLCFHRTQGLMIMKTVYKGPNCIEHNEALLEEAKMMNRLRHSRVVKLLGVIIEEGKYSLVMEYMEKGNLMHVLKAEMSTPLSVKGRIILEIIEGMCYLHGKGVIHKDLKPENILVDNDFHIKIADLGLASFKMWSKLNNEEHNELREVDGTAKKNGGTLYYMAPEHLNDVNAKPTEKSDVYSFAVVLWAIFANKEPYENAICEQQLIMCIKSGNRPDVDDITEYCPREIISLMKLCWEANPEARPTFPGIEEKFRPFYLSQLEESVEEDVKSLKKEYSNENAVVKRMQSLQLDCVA
Assay: RIPK1-ADP-Glo Enzymatic Assay
Type: biochemical
Conditions: ten-point titration, top compound concentration of 100000 nM; 25 nM GST-RIPK1, 300 μM ATP, 3 μM dephosphorylated-MBP; 30 min pre-incubation, 150 min reaction
In short: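 ADP-Glo luminescence quantifies ADP formed over 150 minutes by 25 nM Sf21-produced GST-RIPK1 (1-327) using 300 μM ATP and 3 μM dephosphorylated MBP, following 30-minute compound preincubation at 1% DMSO. Ten-point 1:3 series from 100000 nM gave EC50 via four-parameter sigmoidal regression.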

| Compound | EC50 [µM] |
| --- | --- |
| N#Cc1ccnc(O[C@H]2C[C@@]3(C2)O[C@@H]2CC[C@@H](c4cc(F)cc(F)c4)N2C3=O)c1 [Example 10.1, 2-(((1r,3R,5′S,7a′R)-5′-(3,5-difluorophenyl)-3′-oxotetrahydro-3′H-spiro[cyclobutane-1,2′-pyrrolo[2,1-b]oxazol]-3-yl)oxy)isonicotinonitrile] | 0.009 |
| CS(=O)(=O)c1ccc(COC2CC3(C2)OC2CC[C@@H](c4cnccn4)N2C3=O)cc1 (stereo partly drawn) [Example 18.67, (5′S)-3-{[4-(methylsulfonyl)phenyl]methoxy}-5′-(pyrazin-2-yl)tetrahydro-3′H-spiro[cyclobutane-1,2′-pyrrolo[2,1-b][1,3]oxazol]-3′-one] | 0.088 |
| O=C1N2C(CC[C@H]2c2cnccn2)OC12CC(OCc1cc3cncnc3s1)C2 (stereo partly drawn) [Example 18.20, (5′S)-5′-(pyrazin-2-yl)-3-[(thieno[2,3-d]pyrimidin-6-yl)methoxy]tetrahydro-3′H-spiro[cyclobutane-1,2′-pyrrolo[2,1-b][1,3]oxazol]-3′-one] | 0.022 |
| Cc1cccnc1CO[C@H]1C[C@]2(C1)O[C@@H]1CC[C@@H](c3cnccn3)N1C2=O [Example 20.1, (5′S,7a′R)-3-((3-methylpyridin-2-yl)methoxy)-5′-(pyrazin-2-yl)tetrahydro-3′H-spiro[cyclobutane-1,2′-pyrrolo[2,1-b]oxazol]-3′-one] | 0.664 |
| O=C1N2C(CC[C@H]2c2cnccn2)OC12CC(OCc1csc3ncccc13)C2 (stereo partly drawn) [Example 18.18, (5′S)-5′-(pyrazin-2-yl)-3-[(thieno[2,3-b]pyridin-3-yl)methoxy]tetrahydro-3′H-spiro[cyclobutane-1,2′-pyrrolo[2,1-b][1,3]oxazol]-3′-one] | 0.018 |
| O=C1N2C(CC[C@H]2c2cnccn2)OC12CC(OCc1cccc(CCn3cnnc3)c1)C2 (stereo partly drawn) [Example 18.9, (5′S)-5′-(pyrazin-2-yl)-3-({3-[2-(4H-1,2,4-triazol-4-yl)ethyl]phenyl}methoxy)tetrahydro-3′H-spiro[cyclobutane-1,2′-pyrrolo[2,1-b][1,3]oxazol]-3′-one] | 0.1 |
| O=C1N2[C@@H](CC[C@H]2c2ccc(F)cn2)O[C@]12C[C@@H](OCc1ccccc1)C2 [Example 3.1, (1s,3R,5′S,7a′R)-3-(benzyloxy)-5′-(5-fluoropyridin-2-yl)tetrahydro-3′H-spiro[cyclobutane-1,2′-pyrrolo[2,1-b]oxazol]-3′-one] | 0.108 |
| O=C1N2[C@@H](CC[C@H]2c2cc(F)cc(F)c2)OC12CC(Oc1ncccc1F)C2 (stereo partly drawn) [Example 9.39, (5′S,7a′R)-5′-(3,5-difluorophenyl)-3-[(3-fluoropyridin-2-yl)oxy]tetrahydro-3′H-spiro[cyclobutane-1,2′-pyrrolo[2,1-b][1,3]oxazol]-3′-one] | 0.047 |
| O=C1N2[C@@H](CC[C@H]2c2ccccc2)OC12CCC(Oc1cnccn1)CC2 (mixture of isomers) [Example 9.52, (5′S,7a′R)-5′-phenyl-4-[(pyrazin-2-yl)oxy]tetrahydro-3′H-spiro[cyclohexane-1,2′-pyrrolo[2,1-b][1,3]oxazol]-3′-one] | 0.019 |
| N#Cc1cc(O[C@H]2C[C@@]3(C2)O[C@H]2CC[C@H](c4cnccn4)N2C3=O)ncn1 [Example 9.50, 6-(((5′R,7a′S)-3′-oxo-5′-(pyrazin-2-yl)tetrahydro-3′H-spiro[cyclobutane-1,2′-pyrrolo[2,1-b]oxazol]-3-yl)oxy)pyrimidine-4-carbonitrile] | 0.33 |
| N#Cc1ccc(OC2CC3(C2)O[C@@H]2CC[C@@H](c4ccccc4)N2C3=O)cn1 (stereo partly drawn) [Example 8.2, 5-{[(5′S,7a′R)-3′-oxo-5′-phenyltetrahydro-3′H-spiro[cyclobutane-1,2′-pyrrolo[2,1-b][1,3]oxazol]-3-yl]oxy}pyridine-2-carbonitrile] | 0.251 |
| N#Cc1cccc(OC2CC3(C2)O[C@@H]2CC[C@@H](c4ccccc4)N2C3=O)c1 (stereo partly drawn) [Example 8.5, 3-{[(5′S,7a′R)-3′-oxo-5′-phenyltetrahydro-3′H-spiro[cyclobutane-1,2′-pyrrolo[2,1-b][1,3]oxazol]-3-yl]oxy}benzonitrile] | 0.02 |
| Cn1cc2cc(COC3CC4(C3)O[C@@H]3CC[C@@H](c5cnccn5)N3C4=O)ccc2n1 (stereo partly drawn) [Example 20.3, (5′S,7a′R)-3-[(2-methyl-2H-indazol-5-yl)methoxy]-5′-(pyrazin-2-yl)tetrahydro-3′H-spiro[cyclobutane-1,2′-pyrrolo[2,1-b][1,3]oxazol]-3′-one] | 0.126 |
| N#Cc1cc(OC2CC3(C2)O[C@@H]2CC[C@@H](c4cc(F)cc(F)c4)N2C3=O)ncc1F (single isomer, unassigned) [Example 17.1, 2-((((Is or r),3S,5′S,7a′R)-5′-(3,5-difluorophenyl)-3′-oxotetrahydro-3′H-spiro[cyclobutane-1,2′-pyrrolo[2,1-b]oxazol]-3-yl)oxy)-5-fluoroisonicotinonitrile] | 0.086 |
| O=C1N2[C@@H](CC[C@H]2c2ccc(F)cc2)O[C@]12C[C@H](Oc1cncc(F)c1)C2 [Example 9.48, (1r,3R,5′S,7a′R)-5′-(4-fluorophenyl)-3-[(5-fluoropyridin-3-yl)oxy]tetrahydro-3′H-spiro[cyclobutane-1,2′-pyrrolo[2,1-b][1,3]oxazol]-3′-one] | 0.02 |
| O=C1N2C(CC[C@H]2c2cnccn2)OC12CC(OCc1ccc3cnccc3c1)C2 (stereo partly drawn) [Example 18.37, (5′S)-3-[(isoquinolin-6-yl)methoxy]-5′-(pyrazin-2-yl)tetrahydro-3′H-spiro[cyclobutane-1,2′-pyrrolo[2,1-b][1,3]oxazol]-3′-one] | 0.015 |
| Cn1cc(C2CCC3OC4(CC(Oc5cc(C#N)ncn5)C4)C(=O)N32)cn1 (single isomer, unassigned) [Example 6.4, 6-((((1s or r),3R,5′(R or S),7a′R)-5′-(1-methyl-1H-pyrazol-4-yl)-3′-oxotetrahydro-3′H-spiro[cyclobutane-1,2′-pyrrolo[2,1-b]oxazol]-3-yl)oxy)pyrimidine-4-carbonitrile] | 2.83 |
| O=C1N2[C@@H](CC[C@H]2c2ccccc2)OC12CC(Oc1ccc3sncc3c1)C2 (stereo partly drawn) [Example 8.14, (5′S,7a′R)-3-[(1,2-benzothiazol-5-yl)oxy]-5′-phenyltetrahydro-3′H-spiro[cyclobutane-1,2′-pyrrolo[2,1-b][1,3]oxazol]-3′-one] | 0.083 |
| Cc1ccc(OC2CC3(C2)O[C@@H]2CC[C@@H](c4ccn(C)n4)N2C3=O)cn1 (stereo partly drawn) [Example 19.12, (5′S,7a′R)-5′-(1-methyl-1H-pyrazol-3-yl)-3-[(6-methylpyridin-3-yl)oxy]tetrahydro-3′H-spiro[cyclobutane-1,2′-pyrrolo[2,1-b][1,3]oxazol]-3′-one] | 0.79 |
| O=C1N2[C@@H](CC[C@H]2c2cc(F)cc(F)c2)OC12CC(Oc1cc(-n3cccn3)ncn1)C2 (stereo partly drawn) [Example 9.8, (5′S,7a′R)-5′-(3,5-difluorophenyl)-3-{[6-(1H-pyrazol-1-yl)pyrimidin-4-yl]oxy}tetrahydro-3′H-spiro[cyclobutane-1,2′-pyrrolo[2,1-b][1,3]oxazol]-3′-one] | 0.024 |
| O=C1N2[C@@H](CC[C@H]2c2ccccc2)OC12CC(Oc1nncc3cccn13)C2 (stereo partly drawn) [Example 8.23, (5′S,7a′R)-5′-phenyl-3-[(pyrrolo[1,2-d][1,2,4]triazin-4-yl)oxy]tetrahydro-3′H-spiro[cyclobutane-1,2′-pyrrolo[2,1-b][1,3]oxazol]-3′-one] | 0.029 |
| O=C1N2[C@@H](CC[C@H]2c2cnccn2)OC12CC(OCc1ccccc1)C2 (stereo partly drawn) [Example 4.2, ((1s),3R,5′S,7a′R)-3-(benzyloxy)-5′-(pyrazin-2-yl)tetrahydro-3′H-spiro[cyclobutane-1,2′-pyrrolo[2,1-b]oxazol]-3′-one] | 0.024 |
| O=C1N2[C@@H](CC[C@H]2c2cnccn2)O[C@]12C[C@@H](OCc1ccccc1Cl)C2 [Example 22.1, (1S,3S,5′S,7a′R)-3-((2-chlorobenzyl)oxy)-5′-(pyrazin-2-yl)tetrahydro-3′H-spiro[cyclobutane-1,2′-pyrrolo[2,1-b]oxazol]-3′-one] | 0.018 |
| CC(OC1CC2(C1)O[C@@H]1CC[C@@H](c3cc(F)cc(F)c3)N1C2=O)c1ncccc1F (single isomer, unassigned) [Example 12.5, (1R or S,3S or r,5′S,7a′R)-5′-(3,5-difluorophenyl)-3-((S or R)-1-(3-fluoropyridin-2-yl)ethoxy)tetrahydro-3′H-spiro[cyclobutane-1,2′-pyrrolo[2,1-b]oxazol]-3′-one] | 0.305 |
| N#Cc1cc(O[C@H]2C[C@]3(C2)O[C@@H]2CC[C@@H](c4ccccc4F)N2C3=O)ncn1 [Example 9.43, 6-{[(5′S,7a′R)-5′-(2-fluorophenyl)-3′-oxotetrahydro-3′H-spiro[cyclobutane-1,2′-pyrrolo[2,1-b][1,3]oxazol]-3-yl]oxy}pyrimidine-4-carbonitrile] | 0.353 |
| N#Cc1ccc(O[C@H]2C[C@@]3(C2)O[C@@H]2CC[C@@H](c4ccccc4)N2C3=O)cc1F [Example 8.1, 2-fluoro-4-(((1r,3R,5′S,7a′R)-3′-oxo-5′-phenyltetrahydro-3′H-spiro[cyclobutane-1,2′-pyrrolo[2,1-b]oxazol]-3-yl)oxy)benzonitrile] | 0.031 |
